Assay results: patent publication US20240083898A1, “TRICYCLIC TRIAZOLO COMPOUNDS AS DGK INHIBITORS” (Incyte Corporation, priority 2022, published 2024)

Assays:
[1] = molecular target: T1, DGKζ (Homo sapiens, UniProt Q13574); experiment: In vitro DGKζ inhibition assay (ADP-Glo); format: biochemical; conditions: His-tagged human recombinant enzyme, 0.4 nM DGKζ, 30 μM ATP, 20 μM DLG, 90 minute incubation
T1 construct: His; purchased Signal Chem D30-10H
Procedure: (§1) The DGKα and DGKζ biochemical reactions were performed using His-tagged human recombinant enzymes (Signal Chem, DGKα, #D21-10BH; DGKζ, #D30-10H)) and DLG (Dilauroyl-sn-glycerol) lipid substrate (Signal Chem, #D430-59). ADP-Glo assay was performed using ADP-Glo™ kinase Assay kit (Promega, #V9104). The reactions were carried out in assay buffer containing 40 mM Tris, pH 7.5, 0.1% CHAPS, 0.1% Prionex, 40 mM NaCl, 5 mM MgCl2, 1 mM CaCl2, and 1 mM DTT. DGKα reactions contained 0.1 nM DGKα, 50 μM ATP, and 20 μM DLG. And DGKζ reactions contained 0.4 nM DGKζ, 30 μM ATP, and 20 μM DLG.
(§2) For compound inhibition studies, 40 nL test compound in DMSO was added to wells of white polystyrene plates in 384-well (Greiner, #784075) or 1536-well format (Greiner, #782075). Compounds were added with top concentration of 2 mM with 11 point, 3-fold dilution series. Enzyme solution (contains 2× DGK enzyme concentration in 1× assay buffer) was added to the plate in 2 μL/well volume, followed by 2 μL/well of substrate solution (contains 2× concentration of ATP and DLG substrate in 1× assay buffer). Plates were then centrifuged for 1 min at 1200 RPM and sealed or lidded. For 4 μL reaction volume, test compounds were therefore diluted 100× to final top concentration of 20 μM. After 90 minute incubation, reactions were quenched by addition of 2 μL/well Promega ADP-Glo Reagent, followed by centrifugation and lidding. After 60 min incubation, 2 μL/well Promega Kinase Detection Reagent was added, plates centrifuged, and incubated for 30 min. Plates were then read using Luminescence method on BMG PHERAstar FSX plate reader. Percent inhibition was calculated and IC50s were determined using 4-parameter fit in Genedata Screener. Labcyte Echo acoustic dispenser was used for compound addition, and Formulatrix Tempest liquid handler was used for all reagent dispenses.

[2] = molecular target: T2, DGKα (Homo sapiens, UniProt P23743); experiment: In vitro DGKα inhibition assay (ADP-Glo); format: biochemical; conditions: His-tagged human recombinant enzyme, 0.1 nM DGKα, 50 μM ATP, 20 μM DLG, 90 minute incubation
T2 construct: His; purchased Signal Chem D21-10BH
T2 sequence (P23743 whole entry): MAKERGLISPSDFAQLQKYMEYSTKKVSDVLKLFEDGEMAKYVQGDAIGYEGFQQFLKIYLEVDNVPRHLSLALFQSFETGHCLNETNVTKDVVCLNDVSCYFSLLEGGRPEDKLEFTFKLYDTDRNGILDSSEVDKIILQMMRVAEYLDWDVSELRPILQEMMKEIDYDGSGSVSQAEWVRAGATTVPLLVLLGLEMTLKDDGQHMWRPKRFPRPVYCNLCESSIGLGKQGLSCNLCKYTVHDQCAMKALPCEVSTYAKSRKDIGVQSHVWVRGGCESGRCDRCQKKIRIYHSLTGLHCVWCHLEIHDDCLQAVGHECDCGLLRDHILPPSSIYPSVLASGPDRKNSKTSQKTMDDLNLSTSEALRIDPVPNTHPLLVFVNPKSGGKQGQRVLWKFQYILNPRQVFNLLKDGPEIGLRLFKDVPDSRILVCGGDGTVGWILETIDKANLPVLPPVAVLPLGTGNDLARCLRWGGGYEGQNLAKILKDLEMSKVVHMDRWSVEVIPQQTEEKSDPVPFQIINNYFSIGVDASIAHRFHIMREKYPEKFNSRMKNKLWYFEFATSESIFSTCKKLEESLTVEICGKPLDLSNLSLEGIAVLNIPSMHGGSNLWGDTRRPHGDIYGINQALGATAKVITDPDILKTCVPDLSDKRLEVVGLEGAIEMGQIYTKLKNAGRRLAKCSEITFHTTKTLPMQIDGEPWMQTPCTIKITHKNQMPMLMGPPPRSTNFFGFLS
Procedure: as §1, §2

T1 sequence (Q13574 whole entry): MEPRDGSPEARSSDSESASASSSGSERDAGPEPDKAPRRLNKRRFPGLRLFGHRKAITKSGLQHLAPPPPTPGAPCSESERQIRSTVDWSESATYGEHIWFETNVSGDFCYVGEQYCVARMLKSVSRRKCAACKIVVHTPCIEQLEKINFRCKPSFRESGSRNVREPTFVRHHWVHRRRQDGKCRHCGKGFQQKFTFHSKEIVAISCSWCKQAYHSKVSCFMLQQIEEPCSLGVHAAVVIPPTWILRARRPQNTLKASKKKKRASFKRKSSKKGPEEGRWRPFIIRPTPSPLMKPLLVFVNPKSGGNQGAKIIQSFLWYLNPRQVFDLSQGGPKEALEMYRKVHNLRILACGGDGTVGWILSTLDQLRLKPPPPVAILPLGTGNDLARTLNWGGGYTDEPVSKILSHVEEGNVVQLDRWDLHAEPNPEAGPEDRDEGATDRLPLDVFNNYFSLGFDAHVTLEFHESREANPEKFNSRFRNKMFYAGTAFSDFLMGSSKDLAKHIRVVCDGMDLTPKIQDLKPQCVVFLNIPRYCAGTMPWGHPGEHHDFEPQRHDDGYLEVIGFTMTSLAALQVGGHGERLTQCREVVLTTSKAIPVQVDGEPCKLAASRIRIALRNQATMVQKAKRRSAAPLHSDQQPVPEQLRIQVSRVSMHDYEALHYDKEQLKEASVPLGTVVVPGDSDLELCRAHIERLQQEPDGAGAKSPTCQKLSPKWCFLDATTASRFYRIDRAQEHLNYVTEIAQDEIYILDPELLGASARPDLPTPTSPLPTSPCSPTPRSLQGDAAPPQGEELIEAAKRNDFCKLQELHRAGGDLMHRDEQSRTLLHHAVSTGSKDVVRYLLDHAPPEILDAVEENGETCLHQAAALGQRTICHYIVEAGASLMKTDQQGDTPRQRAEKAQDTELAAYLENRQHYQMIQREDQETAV

| SMILES | IC50 [1] [nM] | IC50 [2] [nM] |
| --- | --- | --- |
| CC[C@@H]1CN(c2nc3nncn3c3cccnc23)[C@@H](C)CN1Cc1cccc2ccccc12 [Example 11, 5-((2S,5R)-5-Ethyl-2-methyl-4-(naphthalen-1-ylmethyl)piperazin-1-yl)pyrido[2,3-e][1,2,4]triazolo[4,3-a]pyrimidine] | ≤ 20 | ≤ 20 |
| CC[C@H]1CN(C(c2ccc(F)cc2)c2ccc(F)cc2)[C@H](CC)CN1c1nc2nncn2c2cc(-c3cnn(C)c3)cnc12 [Example 6, 5-((2S,5R)-4-(Bis(4-fluorophenyl)methyl)-2,5-diethylpiperazin-1-yl)-8-(1-methyl-1H-pyrazol-4-yl)pyrido[2,3-e][1,2,4]triazolo[4,3-a]pyrimidine] | > 2000 | ≤ 20 |
| CC[C@H]1CN(C(c2ccc(F)cc2)c2ccc(F)cc2)[C@H](CC)CN1c1nc2nncn2c2ccc(C)nc12 [Example 1, 5-((2S,5R)-4-(Bis(4-fluorophenyl)methyl)-2,5-diethylpiperazin-1-yl)-7-methylpyrido[2,3-e][1,2,4]triazolo[4,3-a]pyrimidine] | ≤ 20 | ≤ 20 |
| CC[C@@H]1CN(c2nc3nncn3c3cccnc23)[C@@H](C)CN1C(c1ccc(F)cc1)C(C)(C)O (single isomer, unassigned) [Example 14] | 200 to 2000 | ≤ 20 |
| CC[C@@H]1CN(c2nc3nncn3c3cccnc23)[C@@H](C)CN1C(C(=O)OC)c1ccc(F)cc1 (single isomer, unassigned) [Example 12] | 20 to 200 | ≤ 20 |
| CC[C@@H]1CN(c2nc3nncn3c3cccnc23)[C@@H](C)CN1C(c1ccc(F)cc1)C(C)(C)O (single isomer, unassigned) [Example 15] | 20 to 200 | 20 to 200 |
| CC[C@H]1CN(C(c2ccc(F)cc2)c2ccc(F)cc2)[C@H](CC)CN1c1nc2nncn2c2nccnc12 [Example 4, 5-((2S,5R)-4-(Bis(4-fluorophenyl)methyl)-2,5-diethylpiperazin-1-yl)-[1,2,4]triazolo[4,3-a]pteridine] | ≤ 20 | ≤ 20 |
| CC[C@@H]1CN(c2nc3nncn3c3cccnc23)[C@@H](C)CN1C(C(=O)OC)c1ccc(F)cc1 (single isomer, unassigned) [Example 13] | 20 to 200 | ≤ 20 |
| CC[C@H]1CN(C(c2ccc(F)cc2)c2ccc(F)cc2)[C@H](CC)CN1c1nc2nncn2c2ccc(C#N)nc12 [Example 5, 5-((2S,5R)-4-(Bis(4-fluorophenyl)methyl)-2,5-diethylpiperazin-1-yl)pyrido[2,3-e][1,2,4]triazolo[4,3-a]pyrimidine-7-carbonitrile] | ≤ 20 | ≤ 20 |
| CC[C@H]1CN(C(c2ccc(F)cc2)c2ccc(F)cc2)[C@H](CC)CN1c1cc2nncn2c2cccnc12 [Example 7, 5-((2S,5R)-4-(Bis(4-fluorophenyl)methyl)-2,5-diethylpiperazin-1-yl)-[1,2,4]triazolo[4,3-a][1,5]naphthyridine] | 20 to 200 | ≤ 20 |
| CC[C@H]1CN(C(c2ccc(F)cc2)c2ccc(F)cc2)[C@H](CC)CN1c1nc2nnc(C)n2c2cccnc12 [Example 3, 5-((2S,5R)-4-(Bis(4-fluorophenyl)methyl)-2,5-diethylpiperazin-1-yl)-1-methylpyrido[2,3-e][1,2,4]triazolo[4,3-a]pyrimidine] | ≤ 20 | ≤ 20 |
| CC[C@@H]1CN(c2nc3nncn3c3nccnc23)[C@@H](C)CN1C(c1ccc(F)cc1)c1ccc(F)cc1 [Example 8, 5-((2S,5R)-4-(Bis(4-fluorophenyl)methyl)-5-ethyl-2-methylpiperazin-1-yl)-[1,2,4]triazolo[4,3-a]pteridine] | ≤ 20 | ≤ 20 |
| CC[C@@H]1CN(c2nc3nncn3c3cccnc23)[C@@H](C)CN1Cc1ccc2cc(F)ccc2n1 [Example 10, 5-((2S,5R)-5-Ethyl-4-((6-fluoroquinolin-2-yl)methyl)-2-methylpiperazin-1-yl)pyrido[2,3-e][1,2,4]triazolo[4,3-a]pyrimidine] | 20 to 200 | ≤ 20 |
| CC[C@H]1CN(C(c2ccc(F)cc2)c2ccc(F)cc2)[C@H](CC)CN1c1nc2nncn2c2cccnc12 [Example 2, 5-((2S,5R)-4-(Bis(4-fluorophenyl)methyl)-2,5-diethylpiperazin-1-yl)pyrido[2,3-e][1,2,4]triazolo[4,3-a]pyrimidine] | ≤ 20 | ≤ 20 |
| CC[C@@H]1CN(c2nc3nncn3c3cccnc23)[C@@H](C)CN1C(c1ccc(F)cc1)c1nc(C2CC2)no1 (mixture of isomers) [Example 9, 3-Cyclopropyl-5-(((2R,5S)-2-ethyl-5-methyl-4-(pyrido[2,3-e][1,2,4]triazolo[4,3-a]pyrimidin-5-yl)piperazin-1-yl)(4-fluorophenyl)methyl)-1,2,4-oxadiazole] | 20 to 200 | ≤ 20 |
